According to PubChem BioAssay AID434987 (Southern Research Specialized Biocontainment Screening …, 2010):
Calls of active or inactive are those of the source. How the calls were made is not given here.

Test system: M. tuberculosis H37Rv growth inhibition with meropenem
Test: dose response, H37Rv, with and without meropenem (AID 434987);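 further: growth over 7 days at 37 °C before Alamar Blue read on day 9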
[1] = M. tuberculosis H37Rv growth inhibition, measured here: IC50 without meropenem
[2] = M. tuberculosis H37Rv growth inhibition, measured here: IC90 without meropenem
[3] = measured here: IC90 with meropenem

Compound	IC50	IC50 [1] [µM]	IC90 [2] [µM]	IC90 [3] [µM]
O=[N+]([O-])c1cc(C(F)(F)F)ccc1NCCc1c[nH]c2ccc(O)cc12	33.9 µM (inactive)	52.8	> 100	72.9
CC(OC(=O)c1ccc([N+](=O)[O-])o1)C(=O)NC1CCCCC1C (configuration not stated)	15.6 µM (inactive)	26.3	70.6	> 100
COc1ccccc1C(=O)Nc1sc2c(c1C(=O)NCc1ccco1)CCCC2	> 100 µM (inactive)	> 100	> 100	> 100
CC(C)OCc1c(C(=O)Nc2nccs2)oc2ccccc12	97.9 µM (inactive)	> 100	> 100	> 100
N#C/C(C(=O)NCc1ccco1)=C1/SC=C(c2ccccc2)N1c1ccccc1	> 100 µM (inactive)	> 100	> 100	> 100
COC(=O)c1ccc(-c2cc(C(=O)O)c3cc4c(cc3n2)OCCO4)cc1	> 100 µM (inactive)	> 100	> 100	> 100
O=C(CSc1nnc(-c2cnccn2)n1Cc1ccco1)Nc1ccc(Br)cc1	44.2 µM (inactive)	> 100	> 100	> 100
Cc1ccc(C2=NN3C(=O)c4ccccc4C3C2)cc1 (configuration not stated)	11.1 µM	49	> 100	35.1
Cc1ccc(C(C)C)c(OCc2ccc(C(=O)N/N=C/c3ccc(C(=O)O)cc3)cc2)c1	13.4 µM	43.3	84.9	49.5
CC(C)Cn1c2c(c(O)c(C(=O)Nc3nccs3)c1=O)CCCC2	3.22 µM	45.7	52.4	> 100
NS(=O)(=O)c1ccc(Sc2nc3ccccc3s2)c([N+](=O)[O-])c1	> 100 µM (inactive)	> 100	> 100	> 100
CC1CCCN(S(=O)(=O)c2ccc(C(=O)Nc3nnc(-c4ccncc4)o3)cc2)C1 (configuration not stated)	32.4 µM (inactive)	49.3	78.1	64.8
CCc1ccc(NC(=O)c2c(Cl)nc(C)c(Cl)c2C)cc1	7.1 µM	> 100	> 100	> 100
Cc1ccc(-c2nc3ccccc3o2)cc1NC(=S)NC(=O)/C=C/c1ccco1	65.8 µM (inactive)	> 100	> 100	> 100
COCCOC(=O)c1c(C)oc2ccc(OC(=O)c3c(OC)cccc3OC)cc12	> 100 µM (inactive)	> 100	> 100	> 100
Cn1c(=O)c2ccccc2n2c(CCl)nnc12	1.22 µM	3.19	> 100	4.65
CSc1ncccc1C(=O)Nc1nc2ccc(Oc3ccccc3)cc2s1	> 100 µM (inactive)	> 100	> 100	> 100
Cc1onc(-c2c(Cl)cccc2Cl)c1/C(N)=N/OC(=O)C1CC1	2.05 µM	> 100	> 100	> 25
Cc1ccccc1NC(=O)c1ccc(CN(c2ccccc2)S(=O)(=O)c2ccccc2)cc1	> 100 µM (inactive)	> 100	> 100	> 100
CCC(=O)NC(=S)Nc1ccc(NC(=O)c2ccc(C)c([N+](=O)[O-])c2)cc1	> 100 µM (inactive)	> 100	> 100	> 100

Compound	IC50	IC50 [1] [µM]	IC90 [2] [µM]	IC90 [3] [µM]
COC(=O)CNC(c1ccccc1Cl)c1cc(Br)ccc1NC(=O)CCN1CCOCC1 (configuration not stated)	19.8 µM	49.1	53.7	34.3
CC1(C)CCN2CCC(C)(C)c3c(O)ccc1c32	34.7 µM (inactive)	47.1	53	49.3
COc1ccc(-c2cc3nc(C)cc(N4CC(C)CC(C)C4)n3n2)cc1 (configuration not stated)	> 100 µM (inactive)	> 100	> 100	> 100
C#CCOc1c(Cl)cc(/C=N/NC(N)=S)cc1OCC	87.6 µM (inactive)	> 100	> 100	> 100
Cc1cccc(Nc2nnc(SCC(=O)Nc3ncc(C(F)(F)F)cc3Cl)s2)c1C	7.31 µM (inactive)	13.4	> 100	21.5
O=C(NC1CCCCCCC1)c1ccc(Br)cc1	> 100 µM (inactive)	> 100	> 100	> 100
CN(C)/N=C/c1ccc(/C=N/NC(N)=S)o1	15.2 µM	90.8	> 100	43.3
C/C(=N\NC(N)=S)c1ccc(-n2ccnc2)cc1	6.58 µM	> 100	> 100	> 100
COc1cccc(/C=N/Nc2nc(N3CCCC3)nc(N3CCCC3)n2)c1O	8.14 µM	25.1	63.7	36.1
CC1(C)CC(=O)c2cc(C(=O)NCc3ccco3)c(=O)n(-c3ccccc3)c2C1	> 100 µM (inactive)	> 100	> 100	> 100
CCc1ccc(NC(=S)Nc2ccc3[nH]c(=O)[nH]c3c2)cc1	> 100 µM (inactive)	> 100	> 100	> 100
CC(=O)c1ccc(NC(=S)Nc2ccc(N3CCOCC3)cc2)cc1	21.6 µM	> 100	> 100	> 100
CCCCN(CCCC)C(=S)N/N=C/c1c(C)[nH]n(-c2ccccc2)c1=O	> 100 µM (inactive)	> 100	> 100	> 100
Cc1cc(C)c(-c2c(O)c3ccccc3n(C)c2=O)c(C)c1	9.29 µM	48.8	> 100	42.2
Cc1ccc(C(=O)Nc2nc3ccccc3s2)s1	43.6 µM (inactive)	> 100	> 100	> 100
Cc1ccc(-n2c(SCC(=O)OC(C)C)nnc2-c2ccco2)cc1	37.6 µM (inactive)	62	> 100	> 100
O=C(Nc1ccc(Cl)cc1F)c1cccc2ccccc12	> 100 µM (inactive)	> 100	> 100	> 100
CCC(=O)N1CCN(c2ccc(NC(=S)NC(=O)c3ccc(OC)c([N+](=O)[O-])c3)cc2)CC1	40.2 µM (inactive)	79.6	> 100	67.8
Cc1ccc(SCCNC(=O)c2ccc(C)c([N+](=O)[O-])c2)cc1	49.6 µM (inactive)	> 100	> 100	54
C/C(=N/NC(=O)c1ccc(Cl)s1)c1ccc(NC(=O)COc2ccc(Cl)cc2)cc1	> 100 µM (inactive)	> 100	> 100	> 100

Compound	IC50	IC50 [1] [µM]	IC90 [2] [µM]	IC90 [3] [µM]
O=C(O)Cc1csc(Nc2cccc(Cl)c2)n1	> 100 µM (inactive)	> 100	> 100	> 100
O=C(Nc1ccc(S(=O)(=O)N2CCCCC2)cc1)C1CCCN(C(=O)c2ccc(Cl)cc2)C1 (configuration not stated)	> 100 µM (inactive)	> 100	> 100	> 100
Cn1c(/C=C/c2ccc(Br)cc2)c([N+](=O)[O-])c(=O)n(C)c1=O	> 100 µM (inactive)	> 100	> 100	> 100
CCOc1ccc(-c2nnc(-c3cccs3)o2)cc1OCC	> 100 µM (inactive)	> 100	> 100	> 100
CCCCC(=O)Nc1ccc(NC(=S)NC(=O)CCCCl)cc1OC	> 50 µM (inactive)	94.9	> 100	> 50
Cc1c(-c2ccncc2)oc2ccc(Br)cc2c1=O	> 100 µM (inactive)	> 100	> 100	> 100
O=C(O)c1cc(-c2ccco2)nc2ccc(Br)cc12	> 100 µM (inactive)	> 100	> 100	> 100
O=C(NNC(=O)c1ccc(Oc2cc(Cl)cc(Cl)c2)o1)c1ccccc1	> 100 µM (inactive)	> 100	> 100	> 100
CCN(CC(=O)Nc1ccccc1OC)C(=O)c1cc(S(=O)(=O)N2CCCCCC2)ccc1OC	> 100 µM (inactive)	> 100	> 100	> 100
Cc1cc(C)c2sc(N(CCCN(C)C)C(=O)COc3ccc(Cl)cc3)nc2c1	36.6 µM (inactive)	53.6	80.2	> 100
CCOC(=O)/C(=N\Nc1ccccc1)c1csc(Nc2ccc(C)cc2)n1	> 100 µM (inactive)	> 100	> 100	> 100
Cc1cn([C@@H](CCCCNC(=O)OC(C)(C)C)C(=O)NCCCCCCCCCCC(=O)N2CCN(C(=O)OC(C)(C)C)CC2)nn1	97.7 µM (inactive)	> 100	> 100	> 100
O=C(Cc1ccccc1)NC(=S)Nc1ccc(N2CCCCC2)cc1	> 100 µM (inactive)	> 100	> 100	> 100
C/C(=N\NC(=O)c1cccc(Cl)c1)c1cccc(NC(=O)C(C)C)c1	> 100 µM (inactive)	> 100	> 100	> 100
CN(C)CCCN(C(=O)/C=C/c1cccs1)c1nc2ccc(F)cc2s1	45.2 µM (inactive)	45.8	49.2	48.4
O=C(Nc1nc2ccccc2n1CCN1CCCC1)C1CCCCC1	8.68 µM	23.9	47.2	27.5
Fc1ccc(-c2csc(NC(=S)Nc3ccccc3)n2)cc1	7.55 µM	> 100	> 100	> 50
Nc1ccc(C(=O)O)c(O)c1	0.25 µM (inactive)	< 0.2	7.65	1.88
